From US20160263131A1, “TREATMENT OF HEPATIC FIBROSIS USING AN INHIBITOR OF CBP/CATENIN” (priority 2013, published 2016) come the findings set out here.

One experiment has as its system α-SMA. The experiment is described as follows: Quantitative RT-PCR of liver, α-SMA mRNA, NASH mice. Format: in vivo, C57BL/6J mice. Conditions: 13 weeks of age, mean ± SD. How it is done: (§1) Total RNA was extracted from liver samples using RNAiso (Takara Bio, Japan) according to the manufacturer's instructions. One μg of RNA was reverse-transcribed using a reaction mixture containing 4.4 mM MgCl2 (Roche, Switzerland), 40 U RNase inhibitor (Toyobo, Japan), 0.5 mM dNTP (Promega, USA), 6.28 μM random hexamer (Promega), 5× first strand buffer (Promega), 10 mM dithiothreitol (Invitrogen, USA) and 200 U MMLV-RT (Invitrogen) in a final volume of 20 μL. The reaction was carried out for 1 hour at 37° C., followed by 5 minutes at 99° C. Real-time PCR was performed using real-time PCR DICE and SYBR premix Taq (Takara Bio). To calculate the relative mRNA expression level, the expression of each gene was normalized to that of reference gene 36B4 (gene symbol: Rplp0). Information of PCR-primer sets and the plate layout was described in Table 1.

Experiment [1] deals with NASH mice. Nature of the experiment: HE staining and NAFLD Activity score in NASH mice. The following applies: for NAFLD Activity score (NAS): mean±SD, Vehicle 5.9±1.0, tended to decrease.
Description: NASH was induced in 40 male mice by a single subcutaneous injection of 200 μg streptozotocin (Sigma-Aldrich, USA) 2 days after birth and feeding with high fat diet (HFD, 57 kcal % fat, cat# HFD32, CLEA Japan, Japan) after 4 weeks of age. The mice were randomized into 5 groups of 8 mice at 9 weeks of age. Eight male littermates, fed with normal diet (cat# CE-2, CLEA Japan) without streptozotocin treatment, were used for the Normal group.
The test substance solution was filled in the osmotic pumps at concentrations determined based on the individual body weight at the start of treatment (day 0). Telmisartan was administered by oral route in a volume of 10 mL/kg body weight.
Telmisartan was administered once daily at a dose of 10 mg/kg body weight.
For HE staining, sections were cut from paraffin blocks of liver tissue prefixed in Bouin's solution and stained with Lillie-Mayer's Hematoxylin (Muto Pure Chemicals, Japan) and eosin solution (Wako Pure Chemical Industries).
The test system of experiment [2] is NASH mice. The experiment is described as follows: Sirius red staining, fibrosis area in liver of NASH mice. Format: in vivo, C57BL/6J mice. The following applies: for Sirius red-positive area (fibrosis area): NASH mice, 13 weeks of age, mean ± SD, n = 8, Vehicle 1.02 ± 0.33. How it is done: C57BL/6J mice (15-day pregnant female) were obtained from Charles River Laboratories Japan (Kanagawa, Japan). All animals used in this study were housed and cared for in accordance with the Japanese Pharmacological Society Guidelines for Animal Use. The animals were maintained in a SPF facility under controlled conditions of temperature (23±2° C.), humidity (45±10%), lighting (12-hour artificial light and dark cycles; light from 8:00 to 20:00) and air exchange. A high pressure (20±4 Pa) was maintained in the experimental room to prevent contamination of the facility. The animals were housed in polycarbonate cages KN-600 (Natsume Seisakusho, Japan) with a maximum of 4 mice per cage. Sterilized PULMASμ (Material Research Center, Japan) was used for bedding and replaced once a week. Sterilized solid HFD was provided ad libitum, being placed in the metal lid on top of the cage. Pure water was provided ad libitum from a water bottle equipped with a rubber stopper and a sipper tube. Water bottles were replaced once a week, cleaned and sterilized in autoclave and reused. Mice were identified by numbers engraved on earrings. Each cage was labeled with a specific identification code.

The test system of experiment [3] is NASH mice. The experiment is described as follows: Serum TG in NASH mice. Format: in vivo, C57BL/6J mice. The following applies: mean±SD. As to the method:
(§2) Non-fasting blood glucose was measured in whole blood using Life Check (EIDIA, Japan). For serum biochemistry, blood was collected in polypropylene tubes without anticoagulant and kept at room temperature for 30 minutes, followed by at 4° C. for 1 hour. The blood samples were then centrifuged at 1,000×g for 15 minutes at 4° C. The supernatant was collected and stored at −80° C. until use. Serum ALT and TG levels were measured by FUJI DRI-CHEM 7000 (Fujifilm, Japan).

The next experiment relates to Collagen Type 3. The experiment is described as follows: Quantitative RT-PCR of liver, Collagen Type 3 mRNA, NASH mice. Conditions: 13 weeks of age, mean ± SD. Format: in vivo, C57BL/6J mice. As to the method:
as §1

Experiment [4] deals with NASH mice. Nature of the experiment: Whole blood glucose in NASH mice. Format: in vivo, C57BL/6J mice. Conditions: mean±SD. How it is done:
as §2

Experiment [5] deals with NASH mice. The experiment is described as follows: Liver TG content in NASH mice. Format: in vivo, C57BL/6J mice. Conditions: mean±SD, Vehicle 58.8±26.9, no significant difference. As to the method: Liver total lipid-extracts were obtained from right lobes by Folch's method (Folch J. et al, J. Biol. Chem. 1957; 226 (1): 497). The livers were homogenized in chloroform-methanol (2:1, v/v) and incubated overnight at room temperature. After washing with chloroform-methanol-water (8:4:3, v/v/v), the extracts were evaporated to dryness, and dissolved in isopropanol. Liver TG levels were measured by Triglyceride E-test (Wako Pure Chemical Industries). Extracts were diluted 2- to 4-fold in isopropanol when the TG contents exceed the limit of detection.

The test system of experiment [6] is NASH mice. Nature of the experiment: Liver hydroxyproline content in NASH mice. Format: in vivo, C57BL/6J mice. Conditions: μg per mg total protein, mean±SD, Vehicle 0.79±0.19, no significant difference. As to the method: To quantify liver hydroxyproline content, frozen liver samples (35-45 mg) were processed by an alkaline-acid hydrolysis method as follows: the livers were defatted with 100% acetone, dried in the air, dissolved in 2N NaOH at 65° C., and autoclaved at 121° C. for 20 minutes. The lysed samples (400 μL) were acid-hydrolyzed with 400 μL of 6N HCl at 121° C. for 20 minutes, and neutralized with 400 μL of 4N NaOH containing 10 mg/mL activated carbon. AC buffer (2.2M acetic acid/0.48M citric acid, 400 μL) was added to the samples, followed by centrifugation to collect the supernatant. To construct a standard curve of hydroxyproline, serial dilutions of trans-4-hydroxy-Lproline (Sigma-Aldrich) were prepared starting at 16 μg/mL. The prepared samples and standards (each 400 μL) were mixed with 400 μL chloramine T solution (Wako Pure Chemical Industries, Japan) and incubated for 25 minutes at room temperature. The samples were then mixed with Ehrlich's solution (400 μL) and heated at 65° C. for 20 minutes to develop the color. After samples were cooled on ice and centrifuged to remove precipitates, the optical density of each supernatant was measured at 560 nm. The concentrations of hydroxyproline were calculated from the hydroxyproline standard curve. Protein concentrations of liver samples were determined using a BCA protein assay kit (Thermo Fisher Scientific, USA) and used to normalize the calculated hydroxyproline values. Hydroxyproline levels were expressed as μg per mg total protein.

Setting [7] is: high dose 3 mg/kg/day s.c. infusion 9-13 wks.
[8] abbreviates: low dose 1 mg/kg/day s.c. infusion 9-13 wks.

As to `C[C@H]1[C@H]2N(C(=O)CN(C)N2C(=O)NCc2ccccc2)[C@@H](Cc2ccc(OP(=O)(O)O)cc2)C(=O)N1Cc1cccc2cccnc12` [Compound A, 4-(((6S,9S,9aS)-1-(benzylcarbamoyl)-2,9-dimethyl-4,7-dioxo-8-(quinolin-8-ylmethyl)octahydro-1H-pyrazino[2,1-c][1,2,4]triazin-6-yl)methyl)phenyl dihydrogen phosphate], the “α-SMA mRNA expression level (relative, normalized to 36B4)” value in the experiment with α-SMA (high dose 3 mg/kg/day s.c. infusion 9-13 wks, n = 8, Vehicle 3.19 ± 1.81, no significant difference, 3 mg/kg/day) is reported as 2.23±1.23; in the experiment on α-SMA (low dose 1 mg/kg/day s.c. infusion 9-13 wks, n = 8, Vehicle 3.19 ± 1.81, tended to be down-regulated, 1 mg/kg/day), 1.88±0.60. In the experiment with NASH mice [1] (setting [7]), the “HE-stained liver sections, difference from Vehicle group” value is “No obvious difference”. The figures for the “NAFLD Activity score (NAS)” value with NASH mice [1] (setting [7]) and in the experiment with NASH mice [1] (setting [8]) were 5.1±0.6 and 4.8±0.9, respectively. Further, the “HE-stained liver sections: lobular inflammation” value in the experiment with NASH mice [1] (low dose 1 mg/kg/day s.c. infusion 9-13 wks, compared with the Vehicle group) was “improved”. The “Sirius red-positive area (fibrosis area)” value is 0.67±0.21% in the experiment with NASH mice [2] (high dose 3 mg/kg/day continuous s.c. infusion 9-13 wks, significantly decreased, 3 mg/kg/day) and 0.82±0.31% in the experiment on NASH mice [2] (low dose 1 mg/kg/day continuous s.c. infusion 9-13 wks, no significant difference, 1 mg/kg/day). In the experiment on NASH mice [2] (NASH rat model as printed in the legend, FIG. 1 shows high-dose 3 mg/kg/day versus Vehicle), the “Fibrosis (FIG. 1 legend)” value is “reduces fibrosis”. For the same molecule, the “Serum TG” value is 1145 ± 580 mg/dL in the experiment with NASH mice [3] (high dose 3 mg/kg/day s.c. infusion 9-13 wks, Vehicle 391±175, increased) and 815 ± 754 mg/dL in the experiment with NASH mice [3] (low dose 1 mg/kg/day s.c. infusion 9-13 wks, Vehicle 391±175, no significant difference). For the same molecule, the “Collagen Type 3 mRNA expression level (relative, normalized to 36B4)” value is listed as 2.22±0.46 in the experiment on Collagen Type 3 (high dose 3 mg/kg/day s.c. infusion 9-13 wks, n = 8, Vehicle 3.09 ± 1.51, tended to be down-regulated, 3 mg/kg/day) and 1.93±0.37 in the experiment on Collagen Type 3 (low dose 1 mg/kg/day s.c. infusion 9-13 wks, n = 8, Vehicle 3.09 ± 1.51, significantly down-regulated, 1 mg/kg/day). The “Whole blood glucose (non-fasting)” value with NASH mice [4] (high dose 3 mg/kg/day s.c. infusion 9-13 wks, Vehicle 605±134, tended to increase) was determined as 791 ± 54 mg/dL; in the experiment with NASH mice [4] (low dose 1 mg/kg/day s.c. infusion 9-13 wks, Vehicle 605±134, no significant difference) it was 677 ± 36 mg/dL. Besides, the figures for the “Liver TG content” value in the experiment with NASH mice [5] (setting [7]) and in the experiment with NASH mice [5] (setting [8]) were 67.8 ± 24.0 mg/g and 64.8 ± 25.6 mg/g, respectively. The Liver hydroxyproline content with NASH mice [6] (setting [7]) came to 0.95 ± 0.22 µg/mg; with NASH mice [6] (setting [8]), 0.90 ± 0.26 µg/mg.
